Entries after “also recorded” stand apart in the source; their conditions may differ.
Key:
Type in all cases: cell-based
HeLa cells [1] = assay: Translation activity of NanoLuc luciferase mRNA (capped with cap analog, reverse-phase HPLC purified) lipofected into HeLa cells (FIG. 30, 31)
Procedure: In (A) of the figure, a cap analog compound was added, a NanoLuc luciferase mRNA (650-base-long) was transcriptionally synthesized using T7 RNA polymerase, and the transcription reaction was analyzed by denaturing polyacrylamide gel (5%, containing 7.5 M urea as a denaturant) electrophoresis. The composition of the transcription reaction liquid and the reaction conditions are shown below.
15 ng/μL dsDNA transcription template (PCR product of 676-bp containing T7 promoter sequence 5′TAATACGACTCACTATAG3′-(SEQ ID NO: 1) and containing a NanoLuc luciferase gene coding region derived from a pNL1.1 TK vector (Promega)), 2 mM ATP, 2 mM UTP, 2 mM CTP, 2 mM GTP or [0.5 mM GTP+2 mM Cap Analog], 40 mM Tris-HCl (pH 8.0), 8 mM MgCl2, 2 mM spermidine, 5 mM DTT, 10 units/μL T7 RNA polymerase (Takara Bio Inc.).
FIG. 30 is a diagram showing the evaluation of the translation activity of a NanoLuc luciferase mRNA after reverse-phase HPLC isolation and purification. The activity was indicated with the expression level of the mRNA prepared without addition of the cap analog being 1.
FIG. 31 is a diagram showing the evaluation of the translation activity of a NanoLuc luciferase mRNA after reverse-phase HPLC isolation and purification. The activity was indicated with the expression level of the mRNA prepared without addition of the cap analog being 1. […]

HeLa cells [2] = assay: Translation activity of Luc2 mRNA transcriptionally synthesized using a cap analog, HeLa cells (FIG. 37); conditions: lipofection, after 24 hours, versus Tri_1 (CleanCap Reagent AG structure)
Procedure: (§1) An RNA was transcriptionally synthesized with T7 RNA polymerase using a double-stranded DNA as a template. The double-stranded DNA of the template was obtained by amplifying pSP73-a-luc2 (described at the end of the experimental section) encoding the Luc2 gene by a PCR reaction using KOD-Plus-Neo (TOYOBO), Fw primer (cgcgttggccgattcatt: SEQ ID NO: 3), Rev primer ([…]: SEQ ID NO: 4) (1.0 ng/μL DNA vector, 1×KOD-Plus-Neo buffer, 0.2 mM dNTPs, 0.3 μM primers, 1.5 mM MgSO4, 0.02 units/μL polymerase). […]
(§2) Deprotection by photoirradiation: The RNA solution was added to a transparent 96-multiwell plate, and irradiated with 365 nm light at a quantity of light of 4 mW/cm^2 for 15 minutes using a MAX-305 light source device (Asahi Spectra Co., Ltd.). […]
FIG. 37 is a diagram showing the result of evaluation of translation activity in a HeLa cell of RNAs transcriptionally synthesized using a cap analog. […] After 24 hours, the cells were lysed and the luminescence of firefly luciferase was measured. […]
HeLa cells (RIKEN Cell Bank) were cultivated (37° C., 5% CO2) in Dulbecco's modified Eagle's medium (DMEM; WAKO) with addition of 10% fetal bovine serum (FBS; Invitrogen). […] Luminescence was measured using ONE-Glo (registered trademark) luciferase assay (registered trademark) (Promega).

JAWS II cells = assay: Translation activity of Luc2 mRNA transcriptionally synthesized using a cap analog, JAWS II cells (FIG. 38); conditions: lipofection, after 24 hours, versus Tri_1 (CleanCap Reagent AG structure)
Procedure: as §1, §2
FIG. 38 is a diagram showing the result of evaluation of translation activity in JAWS II cells of an RNA transcriptionally synthesized using a cap analog. […] After 24 hours, the cells were lysed and the luminescence of firefly luciferase was measured. […]
Evaluation of intracellular translation activity (JAWS II cells): JAWS II cells (ATCC) were cultivated (37° C., 5% CO2) in Minimum Essential Medium α(MEM α; Thermo Fisher SCIENTIFIC) with addition of 10% fetal bovine serum (FBS; Invitrogen) and GM-CSF (5 ng/mL). […] Luminescence was measured using ONE-Glo (registered trademark) luciferase assay (registered trademark) (Promega).

[3] = tested on: NF-κB reporter (Luc)-HEK 293 cells; assay: Evaluation of intracellular immune response, NF-κB reporter luciferase assay (FIG. 43, 45); conditions: FIG. 45; HEK 293 NF-kB cells, 50 ng and 100 ng mRNA, 24 hours
Procedure: NF-κB reporter (Luc)-HEK 293 cells (BPS Bioscience Inc.) were cultivated (37° C., 5% CO2) in a Dulbecco's modified Eagle's medium (DMEM; WAKO) with addition of 10% fetal bovine serum (FBS; Invitrogen), 100 μg/ml of Hygromycin B. The day before transfection, NF-κB reporter (Luc)-HEK 293 cells were seeded in a 48-well plate (7.5×10^4 cells/well). The next day, the medium was removed and replaced with 225 μL/well Opti-MEM (registered trademark) (Thermo Fisher SCIENTIFIC). 0.375 μL Lipofectamine (registered trademark) Messenger MAX (registered trademark) and 12.5 ng mRNA (DiPure) were diluted in 25 μL Opti-MEM (registered trademark) and introduced into cells. After incubation at 37° C. for 5 hours, 50 μL/well 1× Cell Lysis Buffer (Promega) was added to lyse the cells. Luminescence was measured using ONE-Glo (registered trademark) luciferase assay (registered trademark) (Promega). The protein amount was quantified using Pierce (registered trademark) BCA Protein Assay Kit (Thermo Fisher SCIENTIFIC), and the luminescence value was corrected by the number of cells.
NF-κB reporter (Luc)-HEK 293 cells (BPS Bioscience Inc.) were cultivated (37° C., 5% CO2) in a Dulbecco's modified Eagle's medium (DMEM; WAKO) with addition of 10% fetal bovine serum (FBS; Invitrogen), 100 μg/ml of Hygromycin B. The day before transfection, NF-κB reporter (Luc)-HEK 293 cells were seeded in a 48-well plate (1.0×10^5 cells/well). The next day, the medium was removed and replaced with 240 μL/well Opti-MEM (registered trademark) (Thermo Fisher SCIENTIFIC). 0.15 μL Lipofectamine (registered trademark) Messenger MAX (registered trademark) and 100 ng mRNA were diluted in 10 μL Opti-MEM (registered trademark) and introduced into cells. After incubation at 37° C. for 24 hours, 50 μL/well 1× Cell Lysis Buffer (Promega) was added to lyse the cells. Luminescence was measured using ONE-Glo (registered trademark) luciferase assay (registered trademark) (Promega). The protein amount was quantified using Pierce (registered trademark) BCA Protein Assay Kit (Thermo Fisher SCIENTIFIC), and the luminescence value was corrected by the number of cells.

Compound: C[n+]1cn([C@@H]2O[C@H](COP(=O)(O)OP(=O)([O-])OP(=O)(O)OC[C@H]3O[C@@H](n4cnc5c(=O)[nH]c(N)nc54)C(O)[C@H]3O)[C@H](O)C2OCOC(c2ccccc2[N+](=O)[O-])C(C)(C)C)c2nc(N)nc(O)c21 (mixture of isomers) [Cap Analog_2, P1-{N^7-Methyl-2′-O-[2,2-dimethyl-(R/S)-1-(2-nitrophenyl)propyloxy]methylguanosin-5′-yl} P3-guanosin-5′-yl triphosphate]
- translation activity compared with mRNA prepared using ARCA cap analog (HeLa cells [1]; FIG. 31, mRNA 5 ng/well, cultivated 23 hours): higher translation activity compared to the RNA capped with ARCA

Compound: COC1[C@@H](OP(=O)([O-])OC[C@H]2O[C@@H](n3cnc4c(=O)[nH]c(N)nc43)C(O)[C@H]2O)[C@@H](COP(=O)([O-])OP(=O)([O-])OP(=O)([O-])OC[C@H]2O[C@@H](n3c[n+](C)c4c([O-])nc(N)nc43)C(OCOC(c3ccccc3[N+](=O)[O-])C(C)(C)C)[C@H]2O)O[C@H]1n1cnc2c(N)ncnc21.[Na+].[Na+].[Na+].[Na+] (some centres unmarked) [TriPure_1, Nb-^m7GpppA(2′OCH3)pG]
- translation activity relative to Tri_1 (firefly luciferase luminescence) (HeLa cells [2]): about 2 times
- translation activity relative to Tri_1 (firefly luciferase luminescence) (JAWS II cells): about 24 times
- intracellular immune response (NF-κB reporter luminescence) [3]: lower immune response than conventional mRNAs synthesized using ARCA

Compound: P1-(N^2-tBu-nitrobenzyloxycarbonyl-N^7-methylguanosin-5′-yl) P3-guanosin-5′-yl triphosphate [Cap Analog_1]
- translation activity (amount of expressed NanoLuc luciferase; expression level of mRNA prepared without cap analog being 1) (HeLa cells [1]; FIG. 30, mRNA 20 ng/well, cultivated 7 hours, before and after photoirradiation/deprotection): does not show high translation activity unless it is irradiated with light and deprotected; also recorded: can completely inhibit translation activity in the protected state
